# Measurements from publication PMC7827406, “Structure–Activity Relationship (SAR) Study of Spautin-1 to Entail the Discovery of Novel NEK4 Inhibitors” (International Journal of Molecular Sciences, 2021).
# Like-named read-outs stand apart in the source and are kept apart here.
# How the values were obtained:
# Experiment in all cases: biochemical
# Parameters in all cases: Eurofins KinaseProfiler full panel at Km ATP, residual kinase activity (%) relative to DMSO
# [1] = target: GRK5(h) (Homo sapiens, UniProt P34947)
# Summary of the method: (§1)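 Two 10 µM single-concentration screens were run: a competition-binding screen, in which DNA-tagged kinase bound to immobilized ligands was quantified by qPCR, and a radiometric activity panel at Km ATP. Each is expressed as residual kinase activity (%).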
# [2] = target: T1, ARK5(h) (Homo sapiens, UniProt O60285)
# T1 construct: gene NUAK1
# T1 sequence (O60285 1-661): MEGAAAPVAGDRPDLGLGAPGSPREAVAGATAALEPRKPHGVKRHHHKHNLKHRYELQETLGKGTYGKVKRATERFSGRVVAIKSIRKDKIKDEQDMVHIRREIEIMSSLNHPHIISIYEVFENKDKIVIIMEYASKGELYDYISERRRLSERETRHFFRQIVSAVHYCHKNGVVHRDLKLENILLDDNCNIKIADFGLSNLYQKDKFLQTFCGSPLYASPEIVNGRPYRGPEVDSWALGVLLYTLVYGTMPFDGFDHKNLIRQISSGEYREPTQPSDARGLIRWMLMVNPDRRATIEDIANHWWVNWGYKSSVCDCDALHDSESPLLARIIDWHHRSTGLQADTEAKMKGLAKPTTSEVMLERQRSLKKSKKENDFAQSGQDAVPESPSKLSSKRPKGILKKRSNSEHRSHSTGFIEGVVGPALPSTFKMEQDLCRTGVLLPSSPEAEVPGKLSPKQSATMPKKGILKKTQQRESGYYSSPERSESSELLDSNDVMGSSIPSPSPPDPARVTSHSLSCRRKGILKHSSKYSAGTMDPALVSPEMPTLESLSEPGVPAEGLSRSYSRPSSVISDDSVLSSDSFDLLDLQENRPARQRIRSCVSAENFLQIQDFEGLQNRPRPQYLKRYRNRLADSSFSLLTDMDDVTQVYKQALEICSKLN
# Summary of the method: as §1
# [3] = target: T2, PKBα(h) (Homo sapiens, UniProt P31749)
# T2 construct: gene AKT1
# Summary of the method: as §1
# [4] = target: EphA2(h) (Homo sapiens, UniProt P29317)
# Summary of the method: as §1
# [5] = target: T3, PKCβII(h) (Homo sapiens, UniProt P05771)
# T3 construct: gene PRKCB; isoform beta II
# Summary of the method: as §1
# [6] = target: T4, CDK5/p25(h) (Homo sapiens, UniProt Q00535)
# T4 construct: p25
# Summary of the method: as §1
# [7] = target: mTOR(h) (Homo sapiens, UniProt P42345)
# Summary of the method: as §1
# [8] = target: FGFR1(V561M)(h) (Homo sapiens, UniProt P11362, V561M)
# Summary of the method: as §1
# [9] = target: DYRK1A(h) (Homo sapiens, UniProt Q13627)
# Summary of the method: as §1
# [10] = target: T5, MuSK(h) (Homo sapiens, UniProt O15146)
# T5 sequence (O15146 1-869): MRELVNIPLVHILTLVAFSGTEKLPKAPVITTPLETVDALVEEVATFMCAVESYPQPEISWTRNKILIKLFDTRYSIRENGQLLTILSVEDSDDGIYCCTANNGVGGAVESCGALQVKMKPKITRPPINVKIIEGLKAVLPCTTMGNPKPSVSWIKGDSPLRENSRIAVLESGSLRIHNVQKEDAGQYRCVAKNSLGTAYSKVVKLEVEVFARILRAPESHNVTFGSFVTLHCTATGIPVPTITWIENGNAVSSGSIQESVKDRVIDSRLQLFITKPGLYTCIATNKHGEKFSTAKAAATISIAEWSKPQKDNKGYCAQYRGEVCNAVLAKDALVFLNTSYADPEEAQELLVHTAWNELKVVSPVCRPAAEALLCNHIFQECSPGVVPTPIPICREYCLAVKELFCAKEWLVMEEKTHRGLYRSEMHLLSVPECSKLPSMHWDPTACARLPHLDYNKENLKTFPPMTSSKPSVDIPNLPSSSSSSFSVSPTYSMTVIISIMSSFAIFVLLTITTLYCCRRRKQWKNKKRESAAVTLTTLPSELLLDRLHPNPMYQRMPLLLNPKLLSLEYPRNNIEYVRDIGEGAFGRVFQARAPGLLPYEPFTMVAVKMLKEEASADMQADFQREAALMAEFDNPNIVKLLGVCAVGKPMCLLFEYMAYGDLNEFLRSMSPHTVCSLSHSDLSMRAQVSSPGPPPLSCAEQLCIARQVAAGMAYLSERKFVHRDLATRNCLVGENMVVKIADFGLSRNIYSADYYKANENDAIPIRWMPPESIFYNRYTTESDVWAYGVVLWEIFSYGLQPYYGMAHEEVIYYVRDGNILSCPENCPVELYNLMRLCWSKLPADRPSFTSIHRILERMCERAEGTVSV
# Summary of the method: as §1
# [11] = read-out: Residual activity (%) Spautin-1 5aa
# [12] = read-out: Residual activity (%) 5as
# [13] = read-out: Residual activity (%) 5at
# [14] = read-out: Residual activity (%) 5ay
# T3 sequence (P05771 whole entry, canonical isoform): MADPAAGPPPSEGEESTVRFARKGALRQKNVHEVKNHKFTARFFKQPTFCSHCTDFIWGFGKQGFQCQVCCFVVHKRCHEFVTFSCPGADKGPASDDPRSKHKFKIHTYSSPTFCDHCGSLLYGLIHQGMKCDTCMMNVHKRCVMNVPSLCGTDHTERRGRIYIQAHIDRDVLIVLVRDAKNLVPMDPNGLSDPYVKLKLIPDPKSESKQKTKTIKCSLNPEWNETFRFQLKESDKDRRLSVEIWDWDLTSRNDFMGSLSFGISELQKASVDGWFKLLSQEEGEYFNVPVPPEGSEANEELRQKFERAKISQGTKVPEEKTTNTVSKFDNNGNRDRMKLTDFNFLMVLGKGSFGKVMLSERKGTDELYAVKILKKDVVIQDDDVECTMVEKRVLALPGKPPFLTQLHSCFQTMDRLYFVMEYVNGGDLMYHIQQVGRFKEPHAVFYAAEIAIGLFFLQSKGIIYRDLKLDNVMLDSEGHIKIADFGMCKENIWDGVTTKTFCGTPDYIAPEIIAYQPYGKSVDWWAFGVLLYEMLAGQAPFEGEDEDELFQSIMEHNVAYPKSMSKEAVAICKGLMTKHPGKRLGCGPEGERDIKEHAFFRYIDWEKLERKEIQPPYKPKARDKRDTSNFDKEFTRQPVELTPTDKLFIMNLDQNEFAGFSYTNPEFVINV
# Sequence of EphA2(h) (P29317 whole entry): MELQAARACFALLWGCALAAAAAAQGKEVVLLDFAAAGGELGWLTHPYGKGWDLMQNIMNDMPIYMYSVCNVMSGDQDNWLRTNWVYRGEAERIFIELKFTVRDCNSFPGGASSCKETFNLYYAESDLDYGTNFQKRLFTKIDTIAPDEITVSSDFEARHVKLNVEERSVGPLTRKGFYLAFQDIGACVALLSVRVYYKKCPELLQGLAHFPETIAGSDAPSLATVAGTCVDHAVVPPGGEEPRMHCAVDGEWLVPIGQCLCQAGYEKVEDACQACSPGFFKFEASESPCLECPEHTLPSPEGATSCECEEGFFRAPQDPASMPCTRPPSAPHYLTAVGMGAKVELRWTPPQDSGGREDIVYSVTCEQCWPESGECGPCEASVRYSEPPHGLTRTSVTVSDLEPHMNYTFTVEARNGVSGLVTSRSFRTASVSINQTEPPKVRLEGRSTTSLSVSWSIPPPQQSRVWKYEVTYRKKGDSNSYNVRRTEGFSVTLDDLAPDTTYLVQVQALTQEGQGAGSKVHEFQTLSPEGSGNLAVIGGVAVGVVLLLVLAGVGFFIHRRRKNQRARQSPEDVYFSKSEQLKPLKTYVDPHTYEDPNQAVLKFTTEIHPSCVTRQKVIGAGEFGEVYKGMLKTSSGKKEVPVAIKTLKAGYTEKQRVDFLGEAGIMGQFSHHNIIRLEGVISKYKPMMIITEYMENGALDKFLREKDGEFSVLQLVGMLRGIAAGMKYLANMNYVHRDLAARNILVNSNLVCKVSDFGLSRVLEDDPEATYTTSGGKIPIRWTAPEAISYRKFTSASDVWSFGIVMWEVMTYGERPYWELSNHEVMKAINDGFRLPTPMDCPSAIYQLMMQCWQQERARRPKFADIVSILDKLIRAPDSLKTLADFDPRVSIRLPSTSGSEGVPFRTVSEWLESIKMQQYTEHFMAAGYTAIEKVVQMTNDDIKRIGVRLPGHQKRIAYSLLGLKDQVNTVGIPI
# Sequence of GRK5(h) (P34947 whole entry): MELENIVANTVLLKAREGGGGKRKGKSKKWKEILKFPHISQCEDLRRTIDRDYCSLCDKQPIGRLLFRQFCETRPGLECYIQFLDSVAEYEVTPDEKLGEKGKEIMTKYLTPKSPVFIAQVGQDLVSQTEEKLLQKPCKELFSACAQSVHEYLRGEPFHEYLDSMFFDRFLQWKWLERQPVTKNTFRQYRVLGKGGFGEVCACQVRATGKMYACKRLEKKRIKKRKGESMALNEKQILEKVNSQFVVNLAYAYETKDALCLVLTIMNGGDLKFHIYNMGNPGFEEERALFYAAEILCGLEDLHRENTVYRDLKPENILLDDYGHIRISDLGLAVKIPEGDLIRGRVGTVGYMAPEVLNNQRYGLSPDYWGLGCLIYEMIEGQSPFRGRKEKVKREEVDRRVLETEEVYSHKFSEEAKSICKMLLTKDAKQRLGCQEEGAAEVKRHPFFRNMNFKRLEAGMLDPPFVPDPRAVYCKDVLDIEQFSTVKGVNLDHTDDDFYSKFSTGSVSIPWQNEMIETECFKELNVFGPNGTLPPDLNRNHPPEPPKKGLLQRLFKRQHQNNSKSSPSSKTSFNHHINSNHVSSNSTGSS
# T2 sequence (P31749 whole entry): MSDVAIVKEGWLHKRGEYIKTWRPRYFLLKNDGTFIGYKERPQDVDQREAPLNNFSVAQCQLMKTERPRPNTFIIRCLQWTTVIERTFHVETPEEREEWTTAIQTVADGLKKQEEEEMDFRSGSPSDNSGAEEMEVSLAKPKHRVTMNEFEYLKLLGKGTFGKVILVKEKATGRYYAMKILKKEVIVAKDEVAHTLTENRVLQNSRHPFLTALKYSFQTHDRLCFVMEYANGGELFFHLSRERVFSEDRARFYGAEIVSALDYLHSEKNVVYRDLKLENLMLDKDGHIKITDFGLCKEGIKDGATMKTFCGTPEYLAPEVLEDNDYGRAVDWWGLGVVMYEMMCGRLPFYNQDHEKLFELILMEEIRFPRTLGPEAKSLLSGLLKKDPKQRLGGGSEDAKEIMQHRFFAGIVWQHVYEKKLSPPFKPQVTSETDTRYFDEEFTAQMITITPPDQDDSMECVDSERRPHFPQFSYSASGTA
# Sequence of FGFR1(V561M)(h) (P11362 whole entry V561M): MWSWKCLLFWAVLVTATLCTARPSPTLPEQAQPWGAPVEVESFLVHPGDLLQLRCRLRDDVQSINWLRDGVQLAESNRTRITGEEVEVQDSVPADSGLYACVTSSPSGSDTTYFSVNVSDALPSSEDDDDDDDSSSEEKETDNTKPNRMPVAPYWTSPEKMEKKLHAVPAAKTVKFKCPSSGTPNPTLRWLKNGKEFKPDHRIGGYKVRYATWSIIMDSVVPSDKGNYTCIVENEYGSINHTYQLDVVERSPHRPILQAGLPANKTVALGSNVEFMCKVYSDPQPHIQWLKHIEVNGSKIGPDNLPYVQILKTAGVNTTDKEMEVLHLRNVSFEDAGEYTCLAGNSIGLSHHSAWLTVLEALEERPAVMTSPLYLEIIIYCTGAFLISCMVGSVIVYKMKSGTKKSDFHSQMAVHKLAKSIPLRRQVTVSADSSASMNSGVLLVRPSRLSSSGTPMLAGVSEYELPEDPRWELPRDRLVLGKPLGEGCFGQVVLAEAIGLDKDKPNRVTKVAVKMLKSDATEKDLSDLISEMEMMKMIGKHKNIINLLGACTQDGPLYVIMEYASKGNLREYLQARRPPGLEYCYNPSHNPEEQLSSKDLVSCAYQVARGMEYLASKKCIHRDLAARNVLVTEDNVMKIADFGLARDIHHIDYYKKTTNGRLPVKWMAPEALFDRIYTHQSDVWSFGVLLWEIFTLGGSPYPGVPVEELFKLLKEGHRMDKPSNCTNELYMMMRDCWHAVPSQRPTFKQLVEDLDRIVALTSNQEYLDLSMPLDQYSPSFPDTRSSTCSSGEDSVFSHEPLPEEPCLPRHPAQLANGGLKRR
# T4 sequence (Q00535 whole entry): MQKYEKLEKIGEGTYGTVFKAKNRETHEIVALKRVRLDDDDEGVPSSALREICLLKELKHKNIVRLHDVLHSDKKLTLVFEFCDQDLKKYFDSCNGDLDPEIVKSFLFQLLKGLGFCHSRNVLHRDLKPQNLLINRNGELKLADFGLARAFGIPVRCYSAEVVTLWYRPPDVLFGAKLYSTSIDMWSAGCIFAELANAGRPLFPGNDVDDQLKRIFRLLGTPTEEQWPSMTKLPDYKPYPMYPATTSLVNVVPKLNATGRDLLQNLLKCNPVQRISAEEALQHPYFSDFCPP
# T4 sequence (Q15078 whole entry partner): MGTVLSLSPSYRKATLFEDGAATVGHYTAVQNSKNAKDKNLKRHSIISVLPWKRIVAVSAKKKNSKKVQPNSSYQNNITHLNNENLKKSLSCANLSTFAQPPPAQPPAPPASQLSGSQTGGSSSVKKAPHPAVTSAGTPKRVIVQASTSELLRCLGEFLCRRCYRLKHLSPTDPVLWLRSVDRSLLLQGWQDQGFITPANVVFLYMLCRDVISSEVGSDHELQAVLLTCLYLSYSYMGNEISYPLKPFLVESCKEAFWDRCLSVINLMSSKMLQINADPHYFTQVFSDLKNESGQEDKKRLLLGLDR
smiles,measurement,setting,value
"Fc1ccc(CNc2ncnc3ccc(F)cc23)cc1 [5aa, 6-Fluoro-N-(4-fluorobenzyl)-4-Quinazolinamine]",remaining activity at 10 µM,[1]; [11],86%
same,remaining activity at 10 µM,[2]; [11],99%
same,remaining activity at 10 µM,[3]; [11],86%
same,remaining activity at 10 µM,[4]; [11],73%
same,remaining activity at 10 µM,[5]; [11],107%
same,remaining activity at 10 µM,[6]; [11],73%
same,remaining activity at 10 µM,[7]; [11],79%
same,remaining activity at 10 µM,[8]; [11],123%
same,remaining activity at 10 µM,[9]; [11],74%
same,remaining activity at 10 µM,[10]; [11],74%
"Fc1ccc(CCNc2ncnc3ccc(F)cc23)cc1 [5as, 6-Fluoro-N-[2-(4-Fluorophenyl)Ethyl]-4-Quinazolinamine]",remaining activity at 10 µM,[1]; [12],95%
same,remaining activity at 10 µM,[2]; [12],101%
same,remaining activity at 10 µM,[3]; [12],98%
same,remaining activity at 10 µM,[4]; [12],90%
same,remaining activity at 10 µM,[5]; [12],100%
same,remaining activity at 10 µM,[6]; [12],89%
same,remaining activity at 10 µM,[7]; [12],76%
same,remaining activity at 10 µM,[8]; [12],100%
same,remaining activity at 10 µM,[9]; [12],68%
same,remaining activity at 10 µM,[10]; [12],81%
"Fc1ccc2ncnc(NCCc3ccc(Cl)cc3)c2c1 [5at, N-[2-(4-Chlorophenyl)Ethyl]-6-Fluoro-4-Quinazolinamine]",remaining activity at 10 µM,[1]; [13],96%
same,remaining activity at 10 µM,[2]; [13],105%
same,remaining activity at 10 µM,[3]; [13],89%
same,remaining activity at 10 µM,[4]; [13],99%
same,remaining activity at 10 µM,[5]; [13],104%
same,remaining activity at 10 µM,[6]; [13],86%
same,remaining activity at 10 µM,[7]; [13],80%
same,remaining activity at 10 µM,[8]; [13],95%
same,remaining activity at 10 µM,[9]; [13],63%
same,remaining activity at 10 µM,[10]; [13],97%
"COc1ccc2ncnc(Nc3cccc(F)c3)c2c1 [5ay, N-(3-Fluorophenyl)-6-Methoxy-4-Quinazolinamine]",remaining activity at 10 µM,[1]; [14],89%
same,remaining activity at 10 µM,[2]; [14],93%
same,remaining activity at 10 µM,[3]; [14],88%
same,remaining activity at 10 µM,[4]; [14],75%
same,remaining activity at 10 µM,[5]; [14],110%
same,remaining activity at 10 µM,[6]; [14],80%
same,remaining activity at 10 µM,[7]; [14],77%
same,remaining activity at 10 µM,[8]; [14],108%
same,remaining activity at 10 µM,[9]; [14],29%
same,remaining activity at 10 µM,[10]; [14],70%
